Laboratory results reported in ChEMBL document CHEMBL1201862, “PubChem BioAssay data set” (2004).
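Cells were grown in 96-well plates and exposed to each compound for 48 hours at five concentrations; endpoints were interpolated linearly between bracketing concentrations, or set to the highest concentration if not reached. GI50: concentration for 50% inhibition of growth.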 Active and inactive are the calls of the source. Cut-off read from the data, not from the text of the source: active = GI50 up to about 1.1 µM and inactive = higher.

Columns and labels:
Test in all cases: DTP human tumour cell line panel, 48 h
MDA-N = test system: MDA-N
KM12 = test system: KM12
Malme-3M = test system: Malme-3M
NCI/ADR-RES = test system: NCI/ADR-RES
SF-539 = test system: SF-539
NCI-H23 = test system: NCI-H23
Hs-578T = test system: Hs-578T
HOP-62 = test system: HOP-62
SK-OV-3 = test system: SK-OV-3
OVCAR-8 = test system: OVCAR-8
SK-MEL-2 = test system: SK-MEL-2
RXF 393 = test system: RXF 393
SK-MEL-5 = test system: SK-MEL-5
ACHN = test system: ACHN
HCT-116 = test system: HCT-116
SN12C = test system: SN12C
UACC-62 = test system: UACC-62
A549 = test system: A549
HT-29 = test system: HT-29
SF-268 = test system: SF-268

Row | Compound | GI50 (MDA-N) | GI50 (KM12) | GI50 (Malme-3M) | GI50 (NCI/ADR-RES) | GI50 (SF-539) | GI50 (NCI-H23) | GI50 (Hs-578T) | GI50 (HOP-62) | GI50 (SK-OV-3) | GI50 (OVCAR-8) | GI50 (SK-MEL-2) | GI50 (RXF 393) | GI50 (SK-MEL-5) | GI50 (ACHN) | GI50 (HCT-116) | GI50 (SN12C) | GI50 (UACC-62) | GI50 (A549) | GI50 (HT-29) | GI50 (SF-268)
1 | C=C(C)c1nc(Oc2ccccc2)nc(Oc2ccccc2)n1 | 3.5 µM (inactive) | 3.09 µM (inactive) | 13.9 µM (inactive) | 10.9 µM (inactive) | 6.37 µM (inactive) | 6.64 µM (inactive) | 4.49 µM (inactive) | 16.1 µM (inactive) | 17.6 µM (inactive) | 4.8 µM (inactive) | 2.21 µM (inactive) | 2.4 µM (inactive) | 13.7 µM (inactive) | 8.63 µM (inactive) | 3.53 µM (inactive) | 5.6 µM (inactive) | 5.78 µM (inactive) | 19.5 µM (inactive) | 3.99 µM (inactive) | 4.79 µM (inactive)
2 | CCOC(=O)c1cc2c([N+](=O)[O-])c(N)ccc2s1 | > 100 µM (inactive) | > 100 µM (inactive) | > 100 µM (inactive) | > 100 µM (inactive) | > 100 µM (inactive) | > 100 µM (inactive) | > 100 µM (inactive) | > 100 µM (inactive) | > 100 µM (inactive) | > 100 µM (inactive) | > 100 µM (inactive) | > 100 µM (inactive) | > 100 µM (inactive) | > 100 µM (inactive) | > 100 µM (inactive) | > 100 µM (inactive) | > 100 µM (inactive) | > 100 µM (inactive) | > 100 µM (inactive) | > 100 µM (inactive)
3 | N=C(N)SCc1ccc(Cl)c2ccccc12.O=[N+]([O-])c1c(O)c(Cl)cc(Cl)c1Cl | 11.1 µM (inactive) | 13.6 µM (inactive) | 9.1 µM (inactive) | 17.9 µM (inactive) | 8.65 µM (inactive) | 12.9 µM (inactive) | 17.9 µM (inactive) | 11.5 µM (inactive) | 13.1 µM (inactive) | 17.7 µM (inactive) | 8.95 µM (inactive) | 7.23 µM (inactive) | 12.6 µM (inactive) | 12.5 µM (inactive) | 11.8 µM (inactive) | 11.3 µM (inactive) | 13.5 µM (inactive) | 14.6 µM (inactive) | 10.2 µM (inactive) | 15.7 µM (inactive)
4 | CCOC(=O)c1cn2c(n1)sc1cc(F)ccc12 | 19.4 µM (inactive) | 62.8 µM (inactive) | > 100 µM (inactive) | > 100 µM (inactive) | 99.5 µM (inactive) | > 100 µM (inactive) | 64.3 µM (inactive) | 29.5 µM (inactive) | > 100 µM (inactive) | > 100 µM (inactive) | > 100 µM (inactive) | 85.1 µM (inactive) | > 100 µM (inactive) | > 100 µM (inactive) | 50.6 µM (inactive) | > 100 µM (inactive) | > 100 µM (inactive) | > 100 µM (inactive) | 82.8 µM (inactive) | 82.2 µM (inactive)
5 | Fc1ccc(N2C(=S)SC(=N\c3ccccc3)/C2=N/c2ccccc2)cc1 | > 100 µM (inactive) | 73.1 µM (inactive) | > 42.9 µM (inactive) | > 92.7 µM (inactive) | > 100 µM (inactive) | > 71.9 µM (inactive) | 81.3 µM (inactive) | > 75 µM (inactive) | > 100 µM (inactive) | > 100 µM (inactive) | > 40.5 µM (inactive) | > 100 µM (inactive) | 41.3 µM (inactive) | > 74.5 µM (inactive) | 17.5 µM (inactive) | > 100 µM (inactive) | > 92 µM (inactive) | > 79.8 µM (inactive) | 27.1 µM (inactive) | > 100 µM (inactive)
6 | C/C1=C\[C@H](C)C[C@H](C)OC(=O)[C@H](C)NC(=O)[C@@H](Cc2ccc(O)c(Br)c2)N(C)C(=O)[C@H](C)NC(=O)[C@@H](C)C1 | 0.0982 µM (active) | 0.731 µM (active) | 0.0708 µM (active) | 0.126 µM (active) | 0.053 µM (active) | 0.462 µM (active) | 0.094 µM (active) | 0.0139 µM (active) | 0.0495 µM (active) | 0.147 µM (active) | 0.0502 µM (active) | 0.0656 µM (active) | 0.0127 µM (active) | 0.0326 µM (active) | 0.00382 µM (active) | 0.401 µM (active) | 0.146 µM (active) | 0.0646 µM (active) | 0.00783 µM (active) | 0.0331 µM (active)
7 | CCC(CO)Nc1nc(NCc2ccccc2)c2ncn(C(C)C)c2n1 (stereo not drawn) [(RS)-ROSCOVITINE] | 30.3 µM (inactive) | 12.7 µM (inactive) | 25.7 µM (inactive) | 15.4 µM (inactive) | 12.6 µM (inactive) | 13.6 µM (inactive) | 4.58 µM (inactive) | 11.9 µM (inactive) | 57.8 µM (inactive) | 16.7 µM (inactive) | 20.7 µM (inactive) | 7.66 µM (inactive) | 15.8 µM (inactive) | 18.8 µM (inactive) | 8.38 µM (inactive) | 32.7 µM (inactive) | 12.8 µM (inactive) | 23.3 µM (inactive) | 18.8 µM (inactive) | 13.7 µM (inactive)
